Data: US20170334899A1, “AMINO-SUBSTITUTED ISOTHIAZOLES” (Bayer Pharma Aktiengesellschaft, priority 2014, published 2017)
pIC50: −log10 of the molar value.

Test system: HeLa
Test: Proliferation assay (crystal violet), HeLa
Assay type: cell-based
Details: Homo sapiens, HeLa, 96 h, HeLa cells; 4 days incubation; crystal violet staining; read-out: IC50 inhibition of proliferation, HeLa
Procedure, shortened: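 Crystal violet proliferation readout, 4-day compound incubation, 0.001–10 μM, final DMSO 0.5%. Zero-point plate stained at time of dosing set as 0%, untreated control as 100%; IC50 via 4-parameter fit.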

Q: With Cc1nsc(Nc2cnc3ccccc3n2)c1C(=O)Nc1ccc(N2CCN(C(=O)OC(C)(C)C)CC2)nc1 [Example 248, tert-butyl 4-[5-({[3-methyl-5-(quinoxalin-2-ylamino)-1,2-thiazol-4-yl]carbonyl}amino)pyridin-2-yl]piperazine-1-carboxylate] as the molecule, how does the pIC50 read?
A: 5.51

Q: With Cc1nsc(Nc2cncc(C(F)(F)F)n2)c1C(=O)Nc1ccc(C(=O)N2CCN(CC(F)F)CC2)cc1 [Example 273, N-(4-{[4-(2,2-difluoroethyl)piperazin-1-yl]carbonyl}phenyl)-3-methyl-5-{[6-(trifluoromethyl)pyrazin-2-yl]amino}-1,2-thiazole-4-carboxamide] as the molecule, how does the pIC50 read?
A: 5.12

Q: With Cc1nsc(Nc2cnc(C(F)(F)F)cn2)c1C(=O)Nc1ccc(C(=O)NC2CN(CC(F)(F)F)C2)cc1 [Example 270, 3-methyl-N-(4-{[1-(2,2,2-trifluoroethyl)azetidin-3-yl]carbamoyl}phenyl)-5-{[5-(trifluoromethyl)pyrazin-2-yl]amino}-1,2-thiazole-4-carboxamide] as the molecule, how does the pIC50 read?
A: < 5.00

Q: Cc1nsc(Nc2cnc(C(F)(F)F)cn2)c1C(=O)Nc1ccc(F)c(OCC2CCN(CCF)CC2)c1 [Example 309, N-(4-fluoro-3-{[1-(2-fluoroethyl)piperidin-4-yl]methoxy}phenyl)-3-methyl-5-{[5-(trifluoromethyl)pyrazin-2-yl]amino}-1,2-thiazole-4-carboxamide] was tested. Which pIC50 did it give?
A: 6.20

Q: With Cc1nsc(Nc2cnc3ccccc3n2)c1C(=O)Nc1cccc(NS(=O)(=O)C2CN(CC(F)(F)F)C2)c1 [Example 285, 3-methyl-5-(quinoxalin-2-ylamino)-N-[3-({[1-(2,2,2-trifluoroethyl)azetidin-3-yl]sulfonyl}amino)phenyl]-1,2-thiazole-4-carboxamide] as the molecule, how does the pIC50 read?
A: < 5.00

Q: Cc1nsc(Nc2cnc(C(F)(F)F)cn2)c1C(=O)Nc1ccc(F)c(OCC2CCN(CC(F)F)C2)c1 (stereo not drawn) [Example 316, N-(3-{[1-(2,2-difluoroethyl)pyrrolidin-3-yl]methoxy}-4-fluorophenyl)-3-methyl-5-{[5-(trifluoromethyl)pyrazin-2-yl]amino}-1,2-thiazole-4-carboxamide] was tested. Which pIC50 did it give?
A: 6.37

Q: With Cc1nsc(Nc2cnc3ccccc3n2)c1C(=O)Nc1cccc(NS(=O)(=O)C2CN(CCC(F)(F)F)C2)c1 [Example 288, 3-methyl-5-(quinoxalin-2-ylamino)-N-[3-({[1-(3,3,3-trifluoropropyl)azetidin-3-yl]sulfonyl}amino)phenyl]-1,2-thiazole-4-carboxamide] as the molecule, how does the pIC50 read?
A: 5.00

Q: How did the pIC50 turn out when Cc1nsc(Nc2cc(C#N)ccn2)c1C(=O)Nc1ccc(OC2CCN(CC(F)(F)F)CC2)nc1 [Example 25, 5-[(4-Cyanopyridin-2-yl)amino]-3-methyl-N-(6-{[1-(2,2,2-trifluoroethyl)piperidin-4-yl]oxy}pyridin-3-yl)-1,2-thiazole-4-carboxamide] was run?
A: 5.68

Q: Cc1nsc(Nc2cnc(C(F)(F)F)cn2)c1C(=O)Nc1ccc(C(=O)N2CCN(C)CC2)cc1 [Example 262, 3-methyl-N-{4-[(4-methylpiperazin-1 yl)carbonyl]phenyl}-5-{[5-(trifluoromethyl)pyrazin-2-yl]amino}-1,2-thiazole-4-carboxamide] was tested. Which pIC50 did it give?
A: 5.03

Q: Cc1nsc(Nc2cncc(C(F)(F)F)n2)c1C(=O)Nc1ccc(C(=O)N2CCN(CCF)CC2)cc1 [Example 274, N-(4-{[4-(2-fluoroethyl)piperazin-1-yl]carbonyl}phenyl)-3-methyl-5-{[6-(trifluoromethyl)pyrazin-2-yl]amino}-1,2-thiazole-4-carboxamide] was tested. Which pIC50 did it give?
A: < 5.00

Q: With Cc1nsc(Nc2cnc(C(F)(F)F)cn2)c1C(=O)Nc1ccc(F)c(OCCCN(C)CC(F)F)c1 [Example 301, N-(3-{3-[(2,2-difluoroethyl)(methyl)amino]propoxy}-4-fluorophenyl)-3-methyl-5-{[5-(trifluoromethyl)pyrazin-2-yl]amino}-1,2-thiazole-4-carboxamide] as the molecule, how does the pIC50 read?
A: 6.44

Q: With Cc1nsc(Nc2cnc(C(F)(F)F)cn2)c1C(=O)Nc1ccc(OC2CCN(CC(F)(F)F)C2)nc1 (stereo not drawn) [Example 297, 3-methyl-N-(6-{[1-(2,2,2-trifluoroethyl)pyrrolidin-3-yl]oxy}pyridin-3-yl)-5-{[5-(trifluoromethyl)pyrazin-2-yl]amino}-1,2-thiazole-4-carboxamide] as the molecule, how does the pIC50 read?
A: 6.46

Q: Cc1nsc(Nc2cc(C#N)ccn2)c1C(=O)Nc1cccc(C(=O)NC(C)C)c1 [Example 254, 5-[(4-cyanopyridin-2-yl)amino]-N-[3-(isopropylcarbamoyl)phenyl]-3-methyl-1,2-thiazole-4-carboxamide] was tested. Which pIC50 did it give?
A: < 5.00

Q: Cc1nsc(Nc2cnc3ccccc3n2)c1C(=O)Nc1cccc(NS(=O)(=O)C2CCN(CC(F)(F)F)C2)c1 (stereo not drawn) [Example 289, 3-methyl-5-(quinoxalin-2-ylamino)-N-[3-({[1-(2,2,2-trifluoroethyl)pyrrolidin-3-yl]sulfonyl}amino)phenyl]-1,2-thiazole-4-carboxamide] was tested. Which pIC50 did it give?
A: 5.11

Q: With Cc1nsc(Nc2cnc3ccccc3n2)c1C(=O)Nc1cccc(NS(=O)(=O)C2CCN(CCC(F)(F)F)CC2)c1 [Example 283, 3-methyl-5-(quinoxalin-2-ylamino)-N-[3-({[1-(3,3,3-trifluoropropyl)piperidin-4-yl]sulfonyl}amino)phenyl]-1,2-thiazole-4-carboxamide] as the molecule, how does the pIC50 read?
A: 5.08
